EP0470275B1, “Skin whitening cosmetics” (priority 1990, dated 1992)

Tests used:
[1] = Solubility of linoleic acid in a silicone oil or a mixed silicone oil
pigmentation = experiment: Animal experiments on inhibition of pigmentation (general statement, no method given); type: in vivo; details: compared with free fatty acids or alkyl esters thereof

SMILES | Solubility in dimethylpolysiloxane [1] | effects on inhibition of pigmentation (pigmentation)
CCCCC/C=C\C/C=C\CCCCCCCC(=O)O [linoleic acid] | not soluble | –
CCCCCCCCCCCCCCCC(=O)O [palmitic acid] | – | no such significant effects
CCCCCCCCCCCCCCCCCC(=O)O [stearic acid] | – | no such significant effects
CC/C=C\C/C=C\C/C=C\CCCCCCCC(=O)O [α-linolenic acid] | not soluble | –
